Laboratory results published in ChEMBL document CHEMBL1201862, “PubChem BioAssay data set” (2004).
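A five-concentration, 48-hour dose response in 96-well plates underlies each endpoint, interpolated linearly between surrounding concentrations. Abbreviation: GI50, concentration required for 50% inhibition of growth.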 The source made the active and inactive calls. Rule as the data show it: active = GI50 up to about 1.1 µM and inactive = higher. Where a SMILES comes first, the peptide text is derived from it. The star is where a group is joined. Boc = CC(C)(C)OC(=O)*; OSu = O=C1CCC(=O)N1O*

What was measured:
Test in all cases: growth of human tumour cells (NCI), 48 h
ACHN = system: ACHN
CAKI-1 = system: CAKI-1
CCRF-CEM = system: CCRF-CEM
COLO 205 = system: COLO 205
HCC 2998 = system: HCC 2998
HL-60 = system: HL-60
HOP-62 = system: HOP-62
IGROV-1 = system: IGROV-1
OVCAR-3 = system: OVCAR-3
RXF 393 = system: RXF 393
SF-295 = system: SF-295
SF-539 = system: SF-539
SK-MEL-28 = system: SK-MEL-28
SK-MEL-2 = system: SK-MEL-2
SK-MEL-5 = system: SK-MEL-5
SNB-75 = system: SNB-75
SR = system: SR
UACC-257 = system: UACC-257
UACC-62 = system: UACC-62

Measured: GI50

N#CC(/C(=N/NC(=N)N)C(=O)Nc1ccccc1[N+](=O)[O-])c1nc(-c2ccc([N+](=O)[O-])cc2)cs1 (configuration not stated)
inactive: ACHN > 100 µM | CAKI-1 > 100 µM | CCRF-CEM > 100 µM | COLO 205 > 100 µM | HCC 2998 > 100 µM | HL-60 > 100 µM | HOP-62 > 100 µM | IGROV-1 > 100 µM | OVCAR-3 > 100 µM | RXF 393 > 100 µM | SF-295 > 100 µM | SF-539 > 100 µM | SK-MEL-28 > 100 µM | SK-MEL-2 > 100 µM | SK-MEL-5 > 100 µM | SNB-75 > 100 µM | SR > 100 µM | UACC-257 > 100 µM | UACC-62 > 100 µM

CCCCCCCCCCCCCCCCCc1cccc(OCOCCOC)c1CO
inactive: ACHN > 100 µM | CAKI-1 > 100 µM | CCRF-CEM > 100 µM | COLO 205 > 100 µM | HCC 2998 > 100 µM | HL-60 > 100 µM | HOP-62 > 100 µM | IGROV-1 > 100 µM | OVCAR-3 > 100 µM | RXF 393 > 100 µM | SF-295 > 100 µM | SF-539 > 100 µM | SK-MEL-28 > 100 µM | SK-MEL-2 > 100 µM | SK-MEL-5 > 100 µM | SNB-75 > 100 µM | SR > 100 µM | UACC-257 > 100 µM | UACC-62 > 100 µM

CC(C)(C)OC(=O)NC(Cc1ccc(O)cc1)C(=O)NC(CCCCN)C(=O)NC(Cc1ccc(O)cc1)C(=O)NC(CCCCN)C(=O)ON1C(=O)CCC1=O (configuration not stated) (Boc-YKYK-OSu; configuration not given here)
inactive: ACHN > 100 µM | CCRF-CEM > 100 µM | COLO 205 > 100 µM | HCC 2998 > 100 µM | HL-60 > 100 µM | HOP-62 > 100 µM | IGROV-1 85.3 µM | RXF 393 > 100 µM | SK-MEL-28 > 100 µM | SK-MEL-2 > 100 µM | SK-MEL-5 > 100 µM | SNB-75 > 100 µM | SR > 100 µM | UACC-257 > 100 µM | UACC-62 > 100 µM

CCN(CC)CCN1CCc2c([nH]c3ccccc23)C1c1cccnc1 (configuration not stated)
inactive: ACHN > 100 µM | CAKI-1 > 100 µM | CCRF-CEM 94.6 µM | HCC 2998 > 100 µM | HL-60 99.3 µM | HOP-62 > 100 µM | IGROV-1 > 100 µM | OVCAR-3 > 100 µM | SF-295 > 100 µM | SF-539 > 100 µM | SK-MEL-28 > 100 µM | SK-MEL-5 > 100 µM | SNB-75 91.4 µM | SR > 100 µM | UACC-257 37.5 µM | UACC-62 > 100 µM

O=c1[nH]c(=O)n(C2OC(CO)C(O)C2O)cc1OCc1ccccc1 (configuration not stated)
inactive: ACHN > 100 µM | CAKI-1 > 100 µM | CCRF-CEM > 60.5 µM | COLO 205 > 64.7 µM | HCC 2998 > 100 µM | HL-60 > 52.8 µM | HOP-62 > 100 µM | IGROV-1 > 100 µM | OVCAR-3 > 100 µM | RXF 393 > 57.4 µM | SF-295 > 100 µM | SF-539 > 100 µM | SK-MEL-28 > 100 µM | SK-MEL-2 > 100 µM | SK-MEL-5 > 100 µM | SNB-75 > 100 µM | SR > 50.1 µM | UACC-257 > 100 µM | UACC-62 > 100 µM

Cc1c(Cl)cccc1NC(=O)C(=O)C1C(=O)CC(C)(C)CC1=O
inactive: ACHN > 100 µM | CAKI-1 > 100 µM | CCRF-CEM > 100 µM | COLO 205 > 100 µM | HCC 2998 > 100 µM | HL-60 > 100 µM | HOP-62 > 100 µM | IGROV-1 > 100 µM | OVCAR-3 > 100 µM | RXF 393 > 100 µM | SF-295 > 100 µM | SF-539 > 100 µM | SK-MEL-28 > 100 µM | SK-MEL-2 > 100 µM | SK-MEL-5 > 100 µM | SNB-75 > 100 µM | SR > 100 µM | UACC-257 > 100 µM | UACC-62 > 100 µM

COc1ccc(C2=Nc3ccccc3N=C(SC)C2)cc1
inactive: ACHN 69.8 µM | CAKI-1 46.8 µM | CCRF-CEM 13.2 µM | COLO 205 51.3 µM | HCC 2998 28.7 µM | HL-60 16.3 µM | HOP-62 > 100 µM | IGROV-1 > 100 µM | OVCAR-3 54.1 µM | RXF 393 62.5 µM | SF-295 77.3 µM | SF-539 > 100 µM | SK-MEL-28 > 100 µM | SK-MEL-2 21.8 µM | SK-MEL-5 39.8 µM | SNB-75 74 µM | SR 25.3 µM | UACC-257 22.1 µM | UACC-62 > 100 µM

COc1cc2c(cc1OC)CC(=O)Nc1cc(OC)c(OC)cc1CC2
inactive: ACHN > 100 µM | CAKI-1 68.2 µM | CCRF-CEM 51.2 µM | COLO 205 38.2 µM | HCC 2998 97.1 µM | HL-60 20.8 µM | HOP-62 55.2 µM | IGROV-1 > 85.9 µM | OVCAR-3 43.9 µM | SF-295 30.3 µM | SF-539 33.2 µM | SK-MEL-28 > 78.3 µM | SK-MEL-2 79.8 µM | SK-MEL-5 18.5 µM | SNB-75 > 59.2 µM | SR 5.74 µM | UACC-257 > 53.7 µM | UACC-62 36.1 µM

CC(C)=CC1C[C@H](C2CC=C3C2(C)CCC2[C@@]3(C)C(=O)CC3[C@]2(C)C=CC(=O)[C@]3(C)CO)CO1 (some centres not stated)
inactive: ACHN 13.2 µM | CAKI-1 23.9 µM | CCRF-CEM 2.96 µM | COLO 205 14 µM | HCC 2998 16.3 µM | HL-60 2.92 µM | HOP-62 12.7 µM | IGROV-1 13.6 µM | OVCAR-3 4.84 µM | RXF 393 10.4 µM | SF-295 13 µM | SF-539 4.57 µM | SK-MEL-28 5.2 µM | SK-MEL-2 5.45 µM | SK-MEL-5 10 µM | SNB-75 8.04 µM | SR 3.02 µM | UACC-257 13.9 µM | UACC-62 11.8 µM

O=C1Nc2ccccc2N/C1=C\C(=O)c1ccccc1O
inactive: ACHN > 100 µM | CAKI-1 > 100 µM | CCRF-CEM > 100 µM | COLO 205 > 100 µM | HCC 2998 > 100 µM | HL-60 > 100 µM | HOP-62 > 100 µM | IGROV-1 > 100 µM | OVCAR-3 > 100 µM | RXF 393 > 100 µM | SF-295 > 100 µM | SK-MEL-28 > 100 µM | SK-MEL-2 > 100 µM | SK-MEL-5 > 100 µM | SNB-75 > 100 µM | SR > 100 µM | UACC-257 > 100 µM | UACC-62 > 100 µM

CCC(=C(c1ccc(OCc2ccccc2)cc1)c1ccc(OCc2ccccc2)cc1)c1ccc(OC)cc1
inactive: ACHN > 100 µM | CAKI-1 > 100 µM | CCRF-CEM > 100 µM | COLO 205 > 100 µM | HCC 2998 > 100 µM | HL-60 > 100 µM | HOP-62 > 100 µM | IGROV-1 > 100 µM | OVCAR-3 > 100 µM | RXF 393 > 100 µM | SF-295 > 100 µM | SF-539 > 100 µM | SK-MEL-28 > 100 µM | SK-MEL-2 > 100 µM | SK-MEL-5 > 100 µM | SNB-75 > 100 µM | SR > 100 µM | UACC-62 > 100 µM

CC12OC3(O)C4C5CC(C6C5C3C61)C42 (configuration not stated)
inactive: ACHN > 100 µM | CAKI-1 > 100 µM | CCRF-CEM > 100 µM | COLO 205 > 100 µM | HCC 2998 > 100 µM | HL-60 > 100 µM | HOP-62 > 100 µM | RXF 393 > 100 µM | SF-539 > 100 µM | SK-MEL-28 > 100 µM | SK-MEL-2 > 100 µM | SNB-75 > 100 µM | SR > 100 µM | UACC-257 > 100 µM | UACC-62 > 100 µM

O=C(Cc1ccccc1)NN1C(=O)C(Cl)C1c1ccccc1 (configuration not stated)
inactive: ACHN > 100 µM | CAKI-1 > 100 µM | CCRF-CEM 18.6 µM | COLO 205 > 100 µM | HCC 2998 > 100 µM | HL-60 27.6 µM | HOP-62 > 100 µM | IGROV-1 66.4 µM | OVCAR-3 37.2 µM | RXF 393 77.6 µM | SF-295 > 100 µM | SK-MEL-28 > 100 µM | SK-MEL-2 > 100 µM | SK-MEL-5 74.1 µM | SNB-75 55.7 µM | SR 18.3 µM | UACC-257 > 100 µM | UACC-62 77.4 µM

O=c1c2cccc3cccc(c4oc5c6cccc7cccc(c(=O)c5c14)c76)c32
inactive: ACHN 11.6 µM | CAKI-1 15.8 µM | CCRF-CEM 5.47 µM | COLO 205 10.9 µM | HCC 2998 27.2 µM | HL-60 9.18 µM | HOP-62 > 100 µM | IGROV-1 16.9 µM | OVCAR-3 12 µM | RXF 393 11.2 µM | SF-295 17.9 µM | SF-539 15.8 µM | SK-MEL-28 13.3 µM | SK-MEL-2 15.7 µM | SK-MEL-5 15.2 µM | SNB-75 14 µM | SR 7.66 µM | UACC-257 17.1 µM | UACC-62 12.8 µM

CCCCCCCCC(O)C#CC(N)=O (configuration not stated)
inactive: ACHN 12.4 µM | CAKI-1 8.67 µM | CCRF-CEM 15.5 µM | HCC 2998 10.6 µM | HL-60 10.8 µM | OVCAR-3 7.35 µM | RXF 393 13.7 µM | SF-295 39 µM | SF-539 12.5 µM | SK-MEL-28 15.5 µM | SK-MEL-2 13.3 µM | SK-MEL-5 12 µM | SNB-75 3.37 µM | SR 12.9 µM | UACC-257 13 µM | UACC-62 5.16 µM
